For one assay, the target named is Galectin-1 (Homo sapiens, UniProt P09382). As to the kind of experiment: Fluorescence anisotropy assay, inhibition of galectin / fluorescein tagged saccharide probe interaction. As to conditions: compound as inhibitor of probe binding. The protocol:
(§1) The affinity of Example 1-45 for galectins were determined by a fluorescence anisotropy assay where the compound was used as an inhibitor of the interaction between galectin and a fluorescein tagged saccharide probe as described Sörme, P., Kahl-Knutsson, B., Huflejt, M., Nilsson, U. J., and Leffler H. (2004) Fluorescence polarization as an analytical tool to evaluate galectin-ligand interactions. Anal. Biochem. 334: 36-47, (Sorme et al., 2004) and Monovalent interactions of Galectin-1 By Salomonsson, Emma; Larumbe, Amaia; Tejler, Johan; Tullberg, Erik; Rydberg, Hanna; Sundin, Anders; Khabut, Areej; Frejd, Torbjorn; Lobsanov, Yuri D.; Rini, James M.; et al, From Biochemistry (2010), 49(44), 9518-9532, (Salomonsson et al., 2010).
In general terms: Fluorescence polarisation rises when a labelled molecule tumbles more slowly, as on binding a larger partner.

In the next assay the target is Galectin-3 (Homo sapiens, UniProt P17931). Described as above. As to conditions: compound as inhibitor of probe binding. The method, then:
as §1

pKd: −log10 of the molar value.

Sequence of Galectin-3 (P17931 whole entry, species assumed): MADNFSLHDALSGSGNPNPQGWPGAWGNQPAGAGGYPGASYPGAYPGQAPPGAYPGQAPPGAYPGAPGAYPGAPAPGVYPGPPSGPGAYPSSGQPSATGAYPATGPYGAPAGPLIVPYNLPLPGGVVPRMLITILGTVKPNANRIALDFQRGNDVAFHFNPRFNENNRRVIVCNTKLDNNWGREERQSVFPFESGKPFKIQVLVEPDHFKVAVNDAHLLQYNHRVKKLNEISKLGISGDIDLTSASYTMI
Sequence of Galectin-1 (P09382 whole entry, species assumed): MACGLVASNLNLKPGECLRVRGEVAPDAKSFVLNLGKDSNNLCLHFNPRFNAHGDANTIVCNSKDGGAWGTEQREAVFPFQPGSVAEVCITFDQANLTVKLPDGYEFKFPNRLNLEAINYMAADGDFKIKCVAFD

Consider `OCC1O[C@H](Sc2cccc(Cl)c2)C(O)C(n2cc(-c3cccc(F)c3)cn2)[C@H]1O` (stereo partly drawn) [Example 1, 3-Chlorophenyl 3-deoxy-3-[4-(3-fluorophenyl)-1H-1,2-pyrazol-1-yl]-1-thio-α-D-galactopyranoside], for which the values for the pKd on Galectin-1 and on Galectin-3 were 4.70 and 6.57, respectively.

`Cc1c(F)cc(-c2cnn(C3C(O)[C@@H](Sc4cncc(Cl)c4)OC(CO)[C@@H]3O)c2)cc1F` (stereo partly drawn) [Example 4, 5-Chloropyridin-3-yl 3-deoxy-3-[4-(3,5-difluoro-4-methylphenyl)-1H-1,2-pyrazol-1-yl]-1-thio-α-D-galactopyranoside]: the pKd on Galectin-1 is 4.37; at Galectin-3 it was 8.05.

Take `OCC1O[C@H](Sc2cncc(Br)c2)C(O)C(n2cc(-c3cc(F)c(F)c(F)c3)cn2)[C@H]1O` (stereo partly drawn) [Example 5, 5-Bromopyridin-3-yl 3-deoxy-3-[4-(3,4,5-trifluorophenyl)-1H-1,2-pyrazol-1-yl]-1-thio-α-D-galactopyranoside]: the pKd is 4.83 at Galectin-1 and 7.60 at Galectin-3.

Consider `C#Cc1cncc(S[C@H]2OC(CO)[C@H](O)C(n3cc(-c4cc(F)c(Cl)c(F)c4)cn3)C2O)c1` (stereo partly drawn) [Example 7, 5-Ethynylpyridin-3-yl 3-[4-(4-chloro-3,5-difluorophenyl)-1H-1,2-pyrazol-1-yl]-3-deoxy-1-thio-α-D-galactopyranoside], for which the pKd on Galectin-1 was 4.52; on Galectin-3, 7.85.

Regarding `N#Cc1ccc(Cl)cc1S[C@H]1OC(CO)[C@H](O)C(n2cc(-c3cc(F)c(Cl)c(F)c3)cn2)C1O` (stereo partly drawn) [Example 8, 5-Chloro-2-cyanophenyl 3-[4-(4-chloro-3,5-difluorophenyl)-1H-1,2-pyrazol-1-yl]-3-deoxy-1-thio-α-D-galactopyranoside], the pKd is 4.32 on Galectin-1 and 7.70 on Galectin-3.

On to `O=C(c1ccc(Cl)cc1S[C@H]1OC(CO)[C@H](O)C(n2cc(-c3cc(F)c(Cl)c(F)c3)cn2)C1O)N1CCC1` (stereo partly drawn) [Example 9, 2-(N-azetidinyl-carbonyl)-5-chlorophenyl 3-[4-(4-chloro-3,5-difluorophenyl)-1H-1,2-pyrazol-1-yl]-3-deoxy-1-thio-α-D-galactopyranoside], for which the pKd was 4.72 at Galectin-1 and 7.92 on Galectin-3.

On to `O=C(c1ccc(Cl)cc1S[C@H]1OC(CO)[C@H](O)C(n2cc(-c3cc(F)c(F)c(F)c3)cn2)C1O)N1CCC1` (stereo partly drawn) [Example 10, 2-(N-azetidinyl-carbonyl)-5-chlorophenyl 3-deoxy-3-[4-(3,4,5-trifluorophenyl)-1H-1,2-pyrazol-1-yl]-1-thio-α-D-galactopyranoside], for which the pKd at Galectin-1 is 5.17; on Galectin-3, 7.82.

`N#Cc1ccc(Cl)cc1S[C@H]1OC(CO)[C@H](O)C(n2cc(-c3cc(F)c(F)c(F)c3)cn2)C1O` (stereo partly drawn) [Example 11, 5-Chloro-2-cyanophenyl 3-deoxy-3-[4-(3,4,5-trifluorophenyl)-1H-1,2-pyrazol-1-yl]-1-thio-α-D-galactopyranoside]: the results for the pKd at Galectin-1 and at Galectin-3 were 5.01 and 7.62, respectively.

In the case of `N#Cc1ncc(Cl)cc1S[C@H]1OC(CO)[C@H](O)C(n2cc(-c3cc(F)c(Cl)c(F)c3)cn2)C1O` (stereo partly drawn) [Example 13, 5-Chloro-2-cyanopyridin-3-yl 3-[4-(4-chloro-3,5-difluorophenyl)-1H-1,2-pyrazol-1-yl]-3-deoxy-1-thio-α-D-galactopyranoside], the values for the pKd on Galectin-1 and at Galectin-3 were 4.47 and 7.85, respectively.

`Cc1cnc(C#N)c(S[C@H]2OC(CO)[C@H](O)C(n3cc(-c4cc(F)c(F)c(F)c4)cn3)C2O)c1` (stereo partly drawn) [Example 14]: the negative logarithm of the Kd (pKd) on Galectin-1 is 4.29; on Galectin-3, 7.10.

Turning to `C#Cc1cnc(C#N)c(S[C@H]2OC(CO)[C@H](O)C(n3cc(-c4cc(F)c(F)c(F)c4)cn3)C2O)c1` (stereo partly drawn) [Example 16, 2-Cyano-5-ethynylpyridin-3-yl 3-deoxy-3-[4-(3,4,5-trifluorophenyl)-1H-1,2-pyrazol-1-yl]-1-thio-α-D-galactopyranoside], the pKd on Galectin-1 was 4.90; at Galectin-3 it was 7.68.

For the compound `OCC1O[C@H](Sc2cncc(Cl)c2)C(O)C(n2cc(-c3cccc(F)n3)cn2)[C@H]1O` (stereo partly drawn) [Example 18, 5-Chloropyridin-3-yl 3-deoxy-3-[4-(6-fluoropyridin-2-yl)-1H-1,2-pyrazol-1-yl]-1-thio-α-D-galactopyranoside], the values for the pKd at Galectin-1 and at Galectin-3 were 4.91 and 6.16, respectively.

`OCC1O[C@H](Sc2cncc(Cl)c2)C(O)C(n2cc(-c3ccc(F)cn3)cn2)[C@H]1O` (stereo partly drawn) [Example 19, 5-Chloropyridin-3-yl 3-deoxy-3-[4-(5-fluoropyridin-2-yl)-1H-1,2-pyrazol-1-yl]-1-thio-α-D-galactopyranoside]: the results for the pKd at Galectin-1 and at Galectin-3 were 5.39 and 5.80, respectively.

In the case of `OCC1O[C@H](Sc2cncc(Cl)c2)C(O)C(n2cc(-c3cc(F)ccn3)cn2)[C@H]1O` (stereo partly drawn) [Example 20, 5-Chloropyridin-3-yl 3-deoxy-3-[4-(4-fluoropyridin-2-yl)-1H-1,2-pyrazol-1-yl]-1-thio-α-D-galactopyranoside], the results for the pKd at Galectin-1 and at Galectin-3 were 4.99 and 6.20, respectively.

As to `OCC1O[C@H](Sc2cncc(Cl)c2)C(O)C(n2cc(-c3cc[nH]n3)cn2)[C@H]1O` (stereo partly drawn) [Example 21, 5-Chloropyridin-3-yl 3-deoxy-3-[4-(1H-1,2-pyrazol-3-yl)-1H-1,2-pyrazol-1-yl]-1-thio-α-D-galactopyranoside], the values for the pKd on Galectin-1 and on Galectin-3 were 5.05 and 4.90, respectively.

Turning to `Cn1ccc(-c2cnn(C3C(O)[C@@H](Sc4cncc(Cl)c4)OC(CO)[C@@H]3O)c2)n1` (stereo partly drawn) [Example 22, 5-Chloropyridin-3-yl 3-deoxy-3-[4-(1-methyl-1,2-pyrazol-3-yl)-1H-1,2-pyrazol-1-yl]-1-thio-α-D-galactopyranoside], the pKd on Galectin-1 was 4.83; at Galectin-3, 5.02.

`OCC1O[C@H](Sc2cncc(Cl)c2)C(O)C(n2cc(-c3ncc[nH]3)cn2)[C@H]1O` (stereo partly drawn) [Example 23, 5-Chloropyridin-3-yl 3-deoxy-3-[4-(1H-imidazol-2-yl)-1H-1,2-pyrazol-1-yl]-1-thio-α-D-galactopyranoside]: the results for the pKd on Galectin-1 and on Galectin-3 were 5.47 and 5.05, respectively.

Regarding `OCC1O[C@H](Sc2cncc(Cl)c2)C(O)C(n2cc(-c3ncco3)cn2)[C@H]1O` (stereo partly drawn) [Example 24, 5-Chloropyridin-3-yl 3-deoxy-3-[4-(oxazol-2-yl)-1H-1,2-pyrazol-1-yl]-1-thio-α-D-galactopyranoside], the pKd on Galectin-1 is 5.21; at Galectin-3 it was 4.99.

`OCC1O[C@H](Sc2cncc(Cl)c2)C(O)C(n2cc(-c3cscn3)cn2)[C@H]1O` (stereo partly drawn) [Example 25, 5-Chloropyridin-3-yl 3-deoxy-3-[4-(thiazol-4-yl)-1H-1,2-pyrazol-1-yl]-1-thio-α-D-galactopyranoside]: the pKd at Galectin-1 is 5.89; on Galectin-3 it was 5.02.

As for `OCC1O[C@H](Sc2cncc(Cl)c2)C(O)C(n2cc(-c3nccs3)cn2)[C@H]1O` (stereo partly drawn) [Example 26, 5-Chloropyridin-3-yl 3-deoxy-3-[4-(thiazol-2-yl)-1H-1,2-pyrazol-1-yl]-1-thio-α-D-galactopyranoside], the values for the pKd at Galectin-1 and on Galectin-3 were 5.64 and 5.00, respectively.

For `OCC1O[C@H](Sc2cncc(Cl)c2)C(O)C(n2cc(-c3nc(Cl)cs3)cn2)[C@H]1O` (stereo partly drawn) [Example 27, 5-Chloropyridin-3-yl 3-[4-(4-chlorothiazol-2-yl)-1H-1,2-pyrazol-1-yl]-3-deoxy-1-thio-α-D-galactopyranoside], the pKd at Galectin-1 was 6.23; at Galectin-3 it was 5.82.

As for `OCC1O[C@H](Sc2cncc(Br)c2)C(O)C(n2cc(-c3nc(Cl)cs3)cn2)[C@H]1O` (stereo partly drawn) [Example 28, 5-Bromopyridin-3-yl 3-[4-(4-chlorothiazol-2-yl)-1H-1,2-pyrazol-1-yl]-3-deoxy-1-thio-α-D-galactopyranoside], the pKd at Galectin-1 was 6.28; on Galectin-3, 5.92.

Take `N#Cc1ccc(Cl)cc1S[C@H]1OC(CO)[C@H](O)C(n2cc(-c3nc(Cl)cs3)cn2)C1O` (stereo partly drawn) [Example 29, 5-Chloro-2-cyanophenyl 3-[4-(4-chlorothiazol-2-yl)-1H-1,2-pyrazol-1-yl]-3-deoxy-1-thio-α-D-galactopyranoside]: the pKd was 6.31 at Galectin-1 and 5.82 at Galectin-3.

With `N#Cc1ncc(Cl)cc1S[C@H]1OC(CO)[C@H](O)C(n2cc(-c3nc(Cl)cs3)cn2)C1O` (stereo partly drawn) [Example 30, 5-Chloro-2-cyanopyridin-3-yl 3-[4-(4-chlorothiazol-2-yl)-1H-1,2-pyrazol-1-yl]-3-deoxy-1-thio-α-D-galactopyranoside], the pKd is 6.29 on Galectin-1 and 5.96 at Galectin-3.

As to `OCC1O[C@H](Sc2cncc(Cl)c2)C(O)C(n2cc(-c3csc(O)n3)cn2)[C@H]1O` (stereo partly drawn) [Example 31, 5-Chloropyridin-3-yl 3-deoxy-3-[4-(2-hydroxythiazol-4-yl)-1H-1,2-pyrazol-1-yl]-1-thio-α-D-galactopyranoside], the pKd at Galectin-1 is 6.85; at Galectin-3 it was 5.47.

On to `OCC1O[C@H](Sc2cncc(Cl)c2)C(O)C(n2cnc(-c3cc(F)c(F)c(F)c3)c2)[C@H]1O` (stereo partly drawn) [Example 36, 5-Chloropyridin-3-yl 3-deoxy-3-[4-(3,4,5-trifluorophenyl)-1H-1,3-imidazol-1-yl]-1-thio-α-D-galactopyranoside], for which the values for the pKd at Galectin-1 and on Galectin-3 were 4.90 and 7.17, respectively.

As to `OCC1O[C@H](Sc2cc(Cl)cnc2N2CC(CO)(CO)C2)C(O)C(n2cc(-c3cc(F)c(F)c(F)c3)cn2)[C@H]1O` (stereo partly drawn) [Example 37, 5-Chloro-[3,3-bis(hydroxymethyl)azetidin-1-yl]pyridin-3-yl 3-deoxy-3-[4-(3,4,5-trifluorophenyl)-1H-1,2-pyrazol-1-yl]-1-thio-α-D-galactopyranoside], the pKd at Galectin-1 is 5.29; on Galectin-3, 7.89.

As usually defined, the pKd is the Kd on a negative log10 scale, so that one unit is a factor of ten. Read a low pKd as a high Kd.
